Source: US20230399312A1, “SUBSTITUTED PYRIMIDINES AND METHODS OF USE” (THERAVANCE BIOPHARMA R&D IP, LLC, priority 2020, published 2023)

How the values were obtained:
[1] = target: T1, recombinant human ALK5 (TGF-βR1) protein (Homo sapiens, UniProt P36897); experiment: Biochemical ALK5 (TGF-βR1) assay to measure pKi (LANCE Ultra ULight kinase assay); settings: apparent pKi, converted from pIC50 by Cheng-Prusoff
T1 construct: purchased Life Technologies PR9075A
T1 sequence (P36897 34-503): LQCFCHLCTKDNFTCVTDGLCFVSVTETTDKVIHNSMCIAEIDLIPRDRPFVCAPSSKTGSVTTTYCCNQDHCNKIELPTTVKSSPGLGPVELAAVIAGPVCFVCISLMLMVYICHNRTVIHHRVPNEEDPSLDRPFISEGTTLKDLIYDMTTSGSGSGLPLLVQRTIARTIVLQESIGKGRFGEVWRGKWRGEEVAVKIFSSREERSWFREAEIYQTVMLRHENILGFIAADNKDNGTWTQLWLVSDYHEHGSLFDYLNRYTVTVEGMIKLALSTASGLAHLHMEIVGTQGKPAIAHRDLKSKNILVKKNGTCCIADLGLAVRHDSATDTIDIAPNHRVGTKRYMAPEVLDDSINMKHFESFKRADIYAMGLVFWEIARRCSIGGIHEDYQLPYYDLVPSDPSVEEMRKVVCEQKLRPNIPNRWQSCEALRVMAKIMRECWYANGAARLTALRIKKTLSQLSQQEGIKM
Summary of the method: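 Cmpd + enzyme, 60 min RT; ATP from 125 μM (5×) stock, 60 min 37 °C; stop 12 mM EDTA/Eu anti-pThr1342 Topo2α Ab (pH 7.0 buffer); TR-FRET 665 nm. DMSO = max, SD-208 = min signal. 4-PL pIC50 → pKi (Cheng-Prusoff).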

[2] = test system: TGF-β-stimulated SMAD3 phosphorylation in BEAS-2B cells; experiment: Cellular ALK5 potency assay, inhibition of TGF-β stimulated pSMAD3 formation in BEAS-2B cells; assay type: cell-based; settings: Homo sapiens, pSMAD3, TGF-β 10 ng/mL, read-out: BEAS2B pIC50 (converted)
Summary of the method: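 Cells were seeded overnight, rinsed into HEPES/BSA-supplemented HBSS, and dosed with serially diluted compound for 1 h at 37 °C, 5% CO2. TGF-β stimulation (10 ng/mL final) followed for 30 min, then lysis and AlphaLISA pSMAD3 measurement; potency reported as pIC50.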

| Ki [1] [nM] | Compound | IC50 [2] [nM] |
| --- | --- | --- |
| 3.98 to 31.6 | Fc1ccccc1-c1nccc(Nc2ccnc(Nc3ccc(N4CCOCC4)cc3)n2)n1 [Compound 399, N4-[2-(2-fluorophenyl)pyrimidin-4-yl]-N2-(4-morpholinophenyl)pyrimidine-2,4-diamine] | 25.1 to 158 |
| 0.0398 to 0.316 | Cc1cccc(-c2nccc(Nc3ccnc(Nc4ccc(CN5CCC[C@@H](C(=O)O[C@H]6CCN(C)C6)C5)cc4)n3)n2)n1 [Compound 139, [(3S)-1-methylpyrrolidin-3-yl] (3R)-1-[[4-[[4-[[2-(6-methyl-2-pyridyl)pyrimidin-4-yl]amino]pyrimidin-2-yl]amino]phenyl]methyl] piperidine-3-carboxylate] | ≤ 20 |
| 0.0398 to 0.316 | COC(=O)C1CCN(Cc2ccc(Nc3nccc(Nc4ccnc(-c5cccc(C)n5)n4)n3)cc2)CC1 [Compound 28, methyl 1-[[4-[[4-[[2-(6-methyl-2-pyridyl)pyrimidin-4-yl]amino]pyrimidin-2-yl]amino]phenyl]methyl] piperidine-4-carboxylate] | ≤ 20 |
| 0.0398 to 0.316 | COC(=O)[C@H]1CN(c2ccc(Nc3nccc(Nc4ccnc(-c5cccc(C)n5)n4)n3)cc2)CCN1 [Compound 172, methyl (2R)-4-[4-[[4-[[2-(6-methyl-2-pyridyl)pyrimidin-4-yl]amino]pyrimidin-2-yl]amino]phenyl]piperazine-2-carboxylate] | 25.1 to 158 |
| 0.0398 to 0.316 | Cc1cccc(-c2nccc(Nc3ccnc(Nc4ccc(-c5cnn(CCN)c5)cc4)n3)n2)n1 [Compound 440, N2-[4-[1-(2-aminoethyl)pyrazol-4-yl]phenyl]-N4-[2-(6-methyl-2-pyridyl)pyrimidin-4-yl]pyrimidine-2,4-diamine] | 25.1 to 158 |
| 0.0398 to 0.316 | Cc1cccc(-c2nccc(Nc3ccnc(Nc4ccc(CN5CCC(C(=O)OCC6CNC6)CC5)cc4)n3)n2)n1 [Compound 275, azetidin-3-ylmethyl 1-[[4-[[4-[[2-(6-methyl-2-pyridyl)pyrimidin-4-yl]amino]pyrimidin-2-yl]amino]phenyl]methyl] piperidine-4-carboxylate] | 25.1 to 158 |
| 0.398 to 3.16 | Cc1cccc(-c2cc(Nc3ccnc(Nc4ccc(N5CCOCC5)cc4)n3)c3cc[nH]c3n2)n1 [Compound 1001, N4-[6-(6-methyl-2-pyridyl)-1H-pyrrolo[2,3-b]pyridin-4-yl]-N2-(4-morpholinophenyl)pyrimidine-2,4-diamine] | 200 to 1260 |
| 0.0398 to 0.316 | Cc1cccc(-c2nccc(Nc3ccnc(Nc4csc(C(=O)OC[C@H]5CCCNC5)c4)n3)n2)n1 [Compound 600, [(3S)-3-piperidyl]methyl 4-[[4-[[2-(6-methyl-2-pyridyl)pyrimidin-4-yl]amino]pyrimidin-2-yl]amino]thiophene-2-carboxylate] | 25.1 to 158 |
| 0.0398 to 0.316 | Cc1cccc(-c2nccc(Nc3ccnc(Nc4ccc(N(C)[C@H]5CCNC5)cc4)n3)n2)n1 [Compound 116, N4-[2-(6-methyl-2-pyridyl)pyrimidin-4-yl]-N2-[4-[methyl-[(3S)-pyrrolidin-3-yl]amino]phenyl]pyrimidine-2,4-diamine] | 25.1 to 158 |
| 0.0398 to 0.316 | Cc1cccc(-c2nccc(Nc3ccnc(Nc4ccc(Cl)c(CN5CCN(C)CC5)c4)n3)n2)n1 [Compound 238, N2-[4-chloro-3-[(4-methylpiperazin-1-yl)methyl]phenyl]-N4-[2-(6-methyl-2-pyridyl)pyrimidin-4-yl]pyrimidine-2,4-diamine] | 25.1 to 158 |
| 0.0398 to 0.316 | Cc1cccc(-c2nccc(Nc3ccnc(Nc4ccc(N5CCN(C6CC6)CC5)cc4)n3)n2)n1 [Compound 457, N2-[4-(4-cyclopropylpiperazin-1-yl)phenyl]-N4-[2-(6-methyl-2-pyridyl)pyrimidin-4-yl]pyrimidine-2,4-diamine] | 25.1 to 158 |
| 0.0398 to 0.316 | Cc1cccc(-c2nc(Nc3ccnc(Nc4ccc(NC(=O)C5CCCNC5)cc4)n3)c3cccn3n2)n1 (stereo not drawn) [Compound 1032, N-[4-[[4-[[2-(6-methyl-2-pyridyl)pyrrolo[2,1-f][1,2,4]triazin-4-yl]amino]pyrimidin-2-yl]amino]phenyl]piperidine-3-carboxamide] | 25.1 to 158 |
